{"source": "patent US20120059021A1", "about": "“COMPOSITIONS AND METHODS FOR TREATING CANCER AND METHODS FOR PREDICTING A RESPONSE TO SUCH TREATMENTS” (UNIVERSITY OF WASHINGTON, priority 2008, published 2012)", "key": {"Wnt/β-catenin signaling [1]": {"tested_on": "Wnt/β-catenin signaling", "experiment": "WNT3A-mediated reporter activity in primary melanocytes", "type": "cell-based, human", "conditions": "HEMs"}, "A375 cells [2]": {"tested_on": "A375 cells", "experiment": "Spheroid assay in three-dimensional collagen matrix", "type": "cell-based, human", "procedure": "Spheroid Assay. A375 cells were used for the spheroid assays. Spheroids were formed and implanted in collagen as previously described (54). Spheroids were treated with indicated conditions 30 minutes after collagen polymerization. Images were obtained on a Nikon TiE inverted widefield high-resolution microscope (Nikon Melville, N.Y.)."}, "A375 cells [3]": {"tested_on": "A375 cells", "experiment": "Immunoblot of apoptosis markers (cleaved caspase-3, cleaved PARP1) in A375 cells", "type": "cell-based, human"}, "COLO829": {"tested_on": "COLO829", "experiment": "Flow cytometry for active (cleaved) caspase-3, COLO829", "type": "cell-based, human", "conditions": "WNT3A, 2 μM PLX4720, 24 hours", "procedure": "(§1) Flow cytometry for Active Caspase-3. Cells were seeded in a 6-well dish at a density to achieve 90-100% confluence at harvest. 24 hours after seeding, cells were treated with the indicated conditions for the indicated amount of time. At the time of collection, supernatants were collected and pooled with trypsinized cells. Cells were fixed with 4% paraformaldehyde and permeabilized according to vendor's protocol for Cleaved Caspase-3 (Asp175) Antibody (AlexaFluor 488 Conjugate) (catalog #9669) (Cell Signaling, Beverly Mass.). The antibody was used at a final dilution of 1:100. Flow was performed on a BD FACSCanto H, and data analysed with FlowJo 8.8.6 (Tree Star) software. Experiments were performed with biological triplicates and data are representative of at least three independent experiments. For experiments involving siRNAs, cells were reverse transfected with 20 nM siRNA in 6-well dishes in triplicate with RNAiMax according to manufacturer's protocol. 48 hours following transfection, cells were treated with the indicated conditions for 24 hours and then harvested for analysis. Cells were harvested, stained, and analyzed as described above."}, "A375 melanoma cells": {"tested_on": "A375 melanoma cells", "experiment": "Isobologram analysis of cell viability (CellTiter-Glo)", "type": "cell-based, human", "method": "Isobologram Analysis of Cell Viability. A375 melanoma cells were seeded in 96-well plates at a concentration of 8,000 cells/well in 100 μl of growth media. 24 hours after plating, cells were treated with all combinations of 2-fold dilutions of WNT3A CM ranging from 20% to 0% and 2-fold dilutions of PLX4720 ranging from 5 μM-0 μM for 48 hours. 10 uL of CellTiter-Glo (Promega Madison, Wis.) was added to each well and total luminescence was measured on an Envision multilabel plate reader (Perkin Elmer Waltham, Mass.). Each condition within an experiment was assayed in triplicate wells and three independent experiments were performed.\nDose-effect analyses, including combination indices, dose reduction indices and median-effect analysis for FIGS. 9A-9C and FIGS. 11A-11C were performed using the method of Chou and Talay (55) via the CalcuSyn software suite (Biosoft, Cambridge UK), version 2.1."}, "SKMEL5": {"tested_on": "SKMEL5", "experiment": "Flow cytometry for active (cleaved) caspase-3, SKMEL5", "type": "cell-based, human", "conditions": "2 uM PLX4720, 24 hours, in % (unit assumed)", "procedure": "as §1, with “experiments.” for “experiments. For experiments involving siRNAs, cells were reverse transfected with 20 nM siRNA in 6-well dishes in triplicate with RNAiMax according to manufacturer's protocol. 48 hours following transfection, cells were treated with the indicated conditions for 24 hours and then harvested for analysis. Cells were harvested, stained, and analyzed as described above.”\nFor experiments involving siRNAs, cells were reverse transfected with 20 nM siRNA in 6-well dishes in triplicate with RNAiMax according to manufacturer's protocol. 48 hours following transfection, cells were treated with the indicated conditions for 24 hours and then harvested for analysis. Cells were harvested, stained, and analyzed as described above."}, "Wnt/β-catenin signaling [4]": {"tested_on": "Wnt/β-catenin signaling", "experiment": "β-catenin activated reporter (BAR) luciferase assay in A375 melanoma cells", "from_the_text": "By way of non-limiting example, Wnt/β-catenin signaling can be measured using the BAR reporter described in detail elsewhere herein. Briefly, the BAR (β-catenin activated reporter) is a lentiviral plasmid which provides for expression of luciferase in response to Wnt/β-catenin signaling. Output can be measured with an automated luminescence plate reader.\nDetailed information on the β-catenin activated reporter (BAR) has been previously described (23). Briefly, the β-catenin activated reporter (pBAR) is a lentiviral plasmid that contains 12 TCF/LEF binding sites (5′-[sequence]-3′) each separated by distinct 5 base-pair linkers upstream of a minimal promoter and the firefly luciferase open reading frame. The reporter also contains a separate PGK promoter that constitutively drives the expression of a puromycin resistance gene for mammalian cell selection. […] PLX4720 was purchased from Symansis (Australia cat# SY-PLX4720). CHIR99021 was purchased from Axon MedChem (Gronigen, Netherlands catalog #Axon1386). Z-VAD-FMK was purchased from R&D systems (Minneapolis, Minn. cat# FMKSP01).\nLow throughput BAR reporter assays. Cells were plated in 96-well plates."}, "AXIN1": {"tested_on": "AXIN1", "experiment": "Immunoblot of steady-state AXIN1 levels in melanoma cells", "type": "cell-based, human"}, "A375": {"tested_on": "A375", "experiment": "Flow cytometry for active (cleaved) caspase-3, A375", "type": "cell-based, human", "procedure": "as §1"}, "[5]": {"conditions": "A375, WNT3A and PLX4720 time course"}}, "data": [{"smiles": "CCCS(=O)(=O)Nc1ccc(F)c(C(=O)c2c[nH]c3ncc(Cl)cc23)c1F", "note": "[PLX4720, N-[3-[(5-Chloro-1H-pyrrolo[2,3-b]pyridin-3-yl)carbonyl]-2,4-difluorophenyl]-1-propanesulfonamide]", "values": [{"measurement": "Wnt/β-catenin signaling", "setting": "Wnt/β-catenin signaling [1]", "value": "no detectable effect"}, {"measurement": "spheroid size", "setting": "A375 cells [2]; A375:GFP- and A375:WNT3A-derived spheroids, 2 μM PLX4720, 72 hours", "value": "decreased spheroid size"}, {"measurement": "dead cells (EtBr staining)", "setting": "A375 cells [2]; spheroids expressing WNT3A, 2 μM PLX4720, 24 hours", "value": "detection of dead cells"}, {"measurement": "number of invasive cells", "setting": "A375 cells [2]; spheroids expressing WNT3A, 2 μM PLX4720, 72 hours", "value": "dramatic decrease in the number of invasive cells"}, {"measurement": "time at which cleaved caspase-3 was first detected", "setting": "A375 cells [3]; [5]", "value": "12 to 16", "unit": "h"}, {"measurement": "cleavage of the caspase-3 substrate PARP1", "setting": "A375 cells [3]; A375, combined WNT3A and 2 μM PLX4720, 24 hours", "value": "synergistic cleavage of the caspase-3 substrate, PARP1"}, {"measurement": "caspase3 activation", "setting": "A375 cells [3]; A375, longer treatment with PLX4720, no exogenous WNT3A", "value": "led to activation of caspase3"}, {"measurement": "SYNERGISTIC APOPTOSIS WITH WNT AND PLX4720?", "setting": "COLO829", "value": "YES"}, {"measurement": "drug reduction indices", "setting": "A375 melanoma cells; combination of WNT3A CM and PLX4720, at 50% growth inhibition", "value": 8.1}, {"measurement": "combination indices (inhibition of cell growth)", "setting": "A375 melanoma cells; combination of WNT3A and PLX4720, 48 hours", "value": "less than 1"}, {"measurement": "cleaved caspase-3-positive cells", "setting": "SKMEL5; AXIN1/2 siRNA, L CM", "value": "11.88 ± 0.18"}, {"measurement": "cleaved caspase-3-positive cells", "setting": "SKMEL5; AXIN1/2 siRNA, W3A CM", "value": "13.13 ± 2.7"}, {"measurement": "cleaved caspase-3-positive cells", "setting": "SKMEL5; Control siRNA, L CM", "value": "3.39 ± 0.22"}, {"measurement": "cleaved caspase-3-positive cells", "setting": "SKMEL5; Control siRNA, W3A CM", "value": "4.28 ± 1.2"}, {"measurement": "activation of BAR", "setting": "Wnt/β-catenin signaling [4]; A375, PLX4720 on its own", "value": "does not lead to any measurable activation of BAR on its own"}, {"measurement": "Wnt/β-catenin signaling (BAR activity)", "setting": "Wnt/β-catenin signaling [4]; A375, in the presence of WNT3A", "value": "enhanced Wnt/β-catenin signaling in a dose-dependent manner"}, {"measurement": "Combination indices (BAR activity)", "setting": "Wnt/β-catenin signaling [4]; WNT3A and PLX4720, fixed ratio doses, particularly at higher levels of BAR activity", "value": "less than 1"}, {"measurement": "steady-state levels of AXIN1", "setting": "AXIN1; A375, Mel624, and COLO829, WNT3A plus 2 μM PLX4720 vs WNT3A alone, 24 hours", "value": "markedly reduced"}, {"measurement": "time after which almost no detectable AXIN1 remained", "setting": "AXIN1; [5]", "value": "16 to 20", "unit": "h"}, {"measurement": "time to rapid decrease in steady-state levels of AXIN1", "setting": "AXIN1; [5]", "value": "1 to 2", "unit": "h"}, {"measurement": "steady-state AXIN1 levels", "setting": "AXIN1; SKMEL5, SKMEL28 and A2058, WNT3A plus 2 μM PLX4720 vs WNT3A alone, 24 hours", "value": "did not significantly decrease"}, {"measurement": "steady-state levels of AXIN1", "setting": "AXIN1; absence of rWnt3A", "value": "slightly decreased"}, {"measurement": "steady-state levels of AXIN1", "setting": "AXIN1; presence of rWnt3A", "value": "markedly diminished"}, {"measurement": "increase in cleaved caspase-3", "setting": "A375; A375, WNT3A CM plus 2 μM PLX4720, 24 hours", "value": "5-20 fold"}, {"measurement": "cleaved caspase-3", "setting": "A375; A375, single agent alone, 24 hours", "value": "minimal increases in cleaved caspase-3"}, {"measurement": "SYNERGISTIC APOPTOSIS WITH WNT AND PLX4720?", "setting": "A375; A375, WNT3A, 2 μM PLX4720, 24 hours", "value": "YES"}]}]}
